We go through 32 compounds from patent publication US20120264735A1 (priority 2009, published 2012).

As usually defined, the pIC50 is −log10 of the IC50, conventionally taken in molar units.

Each structure is given as a SMILES string. pIC50: −log10 of the molar value.

T1 sequence (P08581 25-1390): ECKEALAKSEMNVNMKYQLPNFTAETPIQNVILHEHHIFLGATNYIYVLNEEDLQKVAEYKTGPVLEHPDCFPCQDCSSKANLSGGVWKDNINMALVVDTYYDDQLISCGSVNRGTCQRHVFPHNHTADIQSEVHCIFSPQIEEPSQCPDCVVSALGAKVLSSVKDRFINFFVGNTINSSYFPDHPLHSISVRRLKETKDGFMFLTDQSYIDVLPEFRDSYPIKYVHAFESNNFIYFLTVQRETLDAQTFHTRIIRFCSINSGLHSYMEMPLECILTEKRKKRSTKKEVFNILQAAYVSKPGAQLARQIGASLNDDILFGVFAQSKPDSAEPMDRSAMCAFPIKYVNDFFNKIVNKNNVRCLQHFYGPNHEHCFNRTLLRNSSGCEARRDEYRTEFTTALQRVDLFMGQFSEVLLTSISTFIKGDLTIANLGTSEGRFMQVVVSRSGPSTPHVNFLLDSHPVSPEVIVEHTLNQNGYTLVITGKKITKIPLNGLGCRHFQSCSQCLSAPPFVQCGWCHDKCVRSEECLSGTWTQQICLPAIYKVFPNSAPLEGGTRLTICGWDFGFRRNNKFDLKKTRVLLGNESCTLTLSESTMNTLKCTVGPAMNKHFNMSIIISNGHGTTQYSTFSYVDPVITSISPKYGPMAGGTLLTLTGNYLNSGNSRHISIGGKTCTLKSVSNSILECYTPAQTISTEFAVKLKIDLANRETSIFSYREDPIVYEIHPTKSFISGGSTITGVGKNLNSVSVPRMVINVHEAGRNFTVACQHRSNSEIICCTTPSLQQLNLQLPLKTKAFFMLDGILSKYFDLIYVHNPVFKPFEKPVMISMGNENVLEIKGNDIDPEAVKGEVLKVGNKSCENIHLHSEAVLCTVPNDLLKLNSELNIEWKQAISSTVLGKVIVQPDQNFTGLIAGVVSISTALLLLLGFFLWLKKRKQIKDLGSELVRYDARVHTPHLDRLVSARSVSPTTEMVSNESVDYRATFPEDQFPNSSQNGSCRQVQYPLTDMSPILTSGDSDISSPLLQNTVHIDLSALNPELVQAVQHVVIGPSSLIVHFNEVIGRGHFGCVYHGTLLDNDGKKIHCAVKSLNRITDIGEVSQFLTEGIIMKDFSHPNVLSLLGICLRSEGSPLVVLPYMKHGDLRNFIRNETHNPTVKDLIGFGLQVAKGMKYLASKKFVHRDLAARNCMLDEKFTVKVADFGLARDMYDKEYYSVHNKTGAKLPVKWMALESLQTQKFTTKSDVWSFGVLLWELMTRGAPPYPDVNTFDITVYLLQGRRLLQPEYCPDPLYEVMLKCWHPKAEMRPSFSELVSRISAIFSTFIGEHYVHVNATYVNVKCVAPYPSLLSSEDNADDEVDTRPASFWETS

This assay has as its target T1, c-Met kinase (recombinant c-Met) (Homo sapiens, UniProt P08581).
T1 construct: 0.27 nM recombinant c-Met
Description: In vitro kinase assay I (homogeneous time-resolved fluorescence tyrosine kinase assay). The class given is biochemical. An outline of the steps:
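Biotinylated peptide (0.5 μM) phosphorylated by 0.2 nM recombinant c-Met with 50 μM MgATP, 60 min at room temperature, pH 7.4, 5% DMSO. EDTA stop; HTRF read with Eu-anti-phosphotyrosine antibody and streptavidin-APC. IC50 from 4-parameter logistic fit.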
For `Cn1cc(-n2ccc(=O)c(Cc3cccc(-c4ncc(N5CCCCC5)cn4)c3)n2)cn1` [Example 441, 1-(1-methyl-1H-pyrazol-4-yl)-3-[3-(5-piperidin-1-ylpyrimidin-2-yl)benzyl]pyridazin-4(1H)-one], the pIC50 was > 7.00.

In the case of `Cn1cc(-n2ccc(=O)c(Cc3cccc(-c4ncc(N5CCC(O)CC5)cn4)c3)n2)cn1` [Example 442, 3-{3-[5-(4-hydroxypiperidin-1-yl)pyrimidin-2-yl]benzyl}-1-(1-methyl-1H-pyrazol-4-yl)pyridazin-4(1H)-one], the pIC50 was > 7.00.

For the compound `CN(C)C1CCN(c2cnc(-c3cccc(Cc4nn(-c5cnn(C)c5)ccc4=O)c3)nc2)CC1` [Example 444, 3-(3-{5-[4-(dimethylamino)piperidin-1-yl]pyrimidin-2-yl}benzyl)-1-(1-methyl-1H-pyrazol-4-yl)pyridazin-4(1H)-one], the negative logarithm of the IC50 (pIC50) was > 7.00.

Consider `Cn1cc(-n2ccc(=O)c(Cc3cccc(-c4ncc(N5CCC(C(N)=O)CC5)cn4)c3)n2)cn1` [Example 445, 1-[2-(3-{[1-(1-methyl-1H-pyrazol-4-yl)-4-oxo-1,4-dihydropyridazin-3-yl]methyl}phenyl)pyrimidin-5-yl]piperidine-4-carboxamide], for which the pIC50 was > 7.00.

With `Cn1cc(-n2ccc(=O)c(Cc3cccc(-c4ncc(N5CCC(F)(F)C5)cn4)c3)n2)cn1` [Example 447, 3-{3-[5-(3,3-difluoropyrrolidin-1-yl)pyrimidin-2-yl]benzyl}-1-(1-methyl-1H-pyrazol-4-yl)pyridazin-4(1H)-one], the pIC50 is > 7.00.

In the case of `Cn1cc(-n2ccc(=O)c(Cc3cccc(-c4ncc(N5CCS(=O)(=O)CC5)cn4)c3)n2)cn1` [Example 448, 3-{3-[5-(1,1-dioxidothio-morpholin-4-yl]pyrimidin-2-yl]benzyl}-1-(1-methyl-1H-pyrazol-4-yl)pyridazin-4(1H)-one], the pIC50 is > 7.00.

For the compound `CCCNc1cnc(-c2cccc(Cc3nn(-c4cnn(C)c4)ccc3=O)c2)nc1` [Example 451, 1-(1-Methyl-1H-pyrazol-4-yl)-3-{3-[5-(propylamino)pyrimidin-2-yl]benzyl}pyridazin-4(1H)-one], the pIC50 was > 7.00.

On to `CCNc1cnc(-c2cccc(Cc3nn(-c4cnn(C)c4)ccc3=O)c2)nc1` [Example 452], for which the pIC50 is > 7.00.

As for `COCCNc1cnc(-c2cccc(Cc3nn(-c4cnn(C)c4)ccc3=O)c2)nc1` [Example 453, 3-(3-{5-[(2-methoxyethyl)amino]pyrimidin-2-yl}benzyl)-1-(1-methyl-1H-pyrazol-4-yl)pyridazin-4(1H)-one], the negative logarithm of the IC50 (pIC50) was > 7.00.

With `CCOCCNc1cnc(-c2cccc(Cc3nn(-c4cnn(C)c4)ccc3=O)c2)nc1` [Example 454, 3-(3-{5-[(2-ethoxyethyl)amino]pyrimidin-2-yl}benzyl)-1-(1-methyl-1H-pyrazol-4-yl)pyridazin-4(1H)-one], the pIC50 is > 7.00.

Regarding `CCCN(C)c1cnc(-c2cccc(Cc3nn(-c4cnn(C)c4)ccc3=O)c2)nc1` [Example 456, 3-(3-{5-[Methyl(propyl)amino]pyrimidin-2-yl}benzyl)-1-(1-methyl-1H-pyrazol-4-yl)pyridazin-4(1H)-one], the pIC50 was > 7.00.

Turning to `COCCC(=O)Nc1cnc(-c2cccc(Cc3nn(-c4cnn(C)c4)ccc3=O)c2)nc1` [Example 458, 3-Methoxy-N-[2-(3-{[1-(1-methyl-1H-pyrazol-4-yl)-4-oxo-1,4-dihydropyridazin-3-yl]methyl}phenyl)pyrimidin-5-yl]propanamide], the pIC50 is > 7.00.

`Cn1cc(-n2ccc(=O)c(Cc3cccc(-c4ncc(NC(=O)CC5CCOCC5)cn4)c3)n2)cn1` [Example 459, N-[2-(3-{[1-(1-methyl-1H-pyrazol-4-yl)-4-oxo-1,4-dihydro-pyridazin-3-yl]methyl}phenyl)pyrimidin-5-yl]-2-(tetrahydro 2H-pyran-4-yl)acetamide]: the pIC50 was > 7.00.

Turning to `CCC(=O)Nc1cnc(-c2cccc(Cc3nn(-c4cnn(C)c4)ccc3=O)c2)nc1` [Example 460, N-[2-(3-{[1-(1-methyl-1H-pyrazol-4-yl)-4-oxo-1,4-dihydro-pyridazin-3-yl]methyl}phenyl)pyrimidin-5-yl}propanamide], the pIC50 is > 7.00.

As to `COCC(=O)Nc1cnc(-c2cccc(Cc3nn(-c4cnn(C)c4)ccc3=O)c2)nc1` [Example 461, 2-methoxy-N-[2-(3-{[1-(1-methyl-1H-pyrazol-4-yl)-4-oxo-1,4-dihydro-pyridazin-3-yl]methyl}phenyl)pyrimidin-5-yl]acetamide], the negative-log IC50 (pIC50) is > 7.00.

For `Cn1cc(-n2ccc(=O)c(Cc3cccc(-c4ncc(NC(=O)CN5CCCC5=O)cn4)c3)n2)cn1` [Example 463, N-[2-(3-{[1-(1-methyl-1H-pyrazol-4-yl)-4-oxo-1,4-dihydro-pyridazin-3-yl]methyl}phenyl)pyrimidin-5-yl]-2-(2-oxopyrrolidin-1-yl)acetamide], the pIC50 is > 7.00.

For the compound `Cn1cc(-n2ccc(=O)c(Cc3cccc(-c4ncc(Br)cn4)c3)n2)cn1` [Example 465, 3-[3-(5-Bromopyrimidin-2-yl)benzyl]-1-(1-methyl-1H-pyrazol-4-yl)pyridazin-4(1H)-one], the pIC50 is > 7.00.

Regarding `CN1CCN(c2cnc(-c3cccc(Cc4nn(-c5cnn(C)c5)ccc4=O)c3)nc2)CC1` [Example 467, 3-{3-[5-(4-methyl-piperazin-1-yl)pyrimidin-2-yl]benzyl}-1-(1-methyl-1H-pyrazol-4-yl)pyridazin-4(1H)-one], the pIC50 is > 7.00.

Consider `Cn1cc(-n2ccc(=O)c(Cc3cccc(-c4ncc(N5CCCC5)cn4)c3)n2)cn1` [Example 470, 1-(1-methyl-1H-pyrazol-4-yl)-3-[3-(5-pyrrolidin-1-ylpyrimidin-2-yl)benzyl]pyridazin-4(1H)-one], for which the pIC50 was > 7.00.

On to `Cn1cc(-n2ccc(=O)c(Cc3cccc(-c4ncc(N5CCN(C(=O)OC(C)(C)C)CC5)cn4)c3)n2)cn1` [Example 471, tert-butyl 4-[2-(3-{[1-(1-methyl-1H-pyrazol-4-yl)-4-oxo-1,4-dihydro-pyridazin-3-yl]methyl}phenyl)pyrimidin-5-yl]piperazine-1-carboxylate], for which the pIC50 is > 7.00.

For the compound `Cn1cc(-n2ccc(=O)c(Cc3cccc(-c4ncc(N5CCOCC5)cn4)c3)n2)cn1` [Example 472, 1-(1-methyl-1H-pyrazol-4-yl)-3-[3-(5-morpholin-4-ylpyrimidin-2-yl)benzyl]pyridazin-4(1H)-one], the pIC50 is > 7.00.

On to `Cn1cc(-n2ccc(=O)c(Cc3cccc(-c4ncc(-n5cnnc5)cn4)c3)n2)cn1` [Example 473, 1-(1-Methyl-1H-pyrazol-4-yl)-3-{3-[5-(4H-1,2,4-triazol-4-yl)pyrimidin-2-yl]benzyl}pyridazin-4(1H)-one], for which the pIC50 is > 7.00.

With `Cn1cc(-n2ccc(=O)c(Cc3cccc(-c4ncc(C(=O)NCCN5CCOCC5)cn4)c3)n2)cn1` [Example 477, 2-(3-{[1-(1-methyl-1H-pyrazol-4-yl)-4-oxo-1,4-dihydro-pyridazin-3-yl]methyl}phenyl)-N-(2-morpholin-4-ylethyl)pyrimidine-5-carboxamide], the pIC50 is > 7.00.

`CN1CCN(CCCNC(=O)c2cnc(-c3cccc(Cc4nn(-c5cnn(C)c5)ccc4=O)c3)nc2)CC1` [Example 479, N-[3-(4-methyl-piperazin-1-yl)propyl]-2-(3-{[1-(1-methyl-1H-pyrazol-4-yl)-4-oxo-1,4-dihydro-pyridazin-3-yl]methyl}phenyl)pyrimidine-5-carboxamide]: the negative logarithm of the IC50 (pIC50) is > 7.00.

Turning to `CC(C)CNC(=O)c1cnc(-c2cccc(Cc3nn(-c4cnn(C)c4)ccc3=O)c2)nc1` [Example 480, N-(2-methylpropyl)-2-(3-{[1-(1-methyl-1H-pyrazol-4-yl)-4-oxo-1,4-dihydro-pyridazin-3-yl]methyl}phenyl)pyrimidine-5-carboxamide], the pIC50 was > 7.00.

Consider `Cn1cc(-n2ccc(=O)c(Cc3cccc(-c4ncc(C(=O)NCC(F)(F)F)cn4)c3)n2)cn1` [Example 481, 2-(3-{[1-(1-methyl-1H-pyrazol-4-yl)-4-oxo-1,4-dihydro-pyridazin-3-yl]methyl}phenyl)-N-(2,2,2-trifluoroethyl)pyrimidine-5-carboxamide], for which the pIC50 is > 7.00.

`Cn1cc(-n2ccc(=O)c(Cc3cccc(-c4ncc(C(=O)NCCCN5CCOCC5)cn4)c3)n2)cn1` [Example 482, 2-(3-{[1-(1-methyl-1H-pyrazol-4-yl)-4-oxo-1,4-dihydro-pyridazin-3-yl]methyl}phenyl)-N-(3-morpholin-4-ylpropyl)pyrimidine-5-carboxamide]: the pIC50 was > 7.00.

In the case of `CCNC(=O)c1cnc(-c2cccc(Cc3nn(-c4cnn(C)c4)ccc3=O)c2)nc1` [Example 484, N-ethyl-2-(3-{[1-(1-methyl-1H-pyrazol-4-yl)-4-oxo-1,4-dihydro-pyridazin-3-yl]methyl}phenyl)pyrimidine-5-carboxamide], the pIC50 was > 7.00.

On to `CNC(=O)c1cnc(-c2cccc(Cc3nn(-c4cnn(C)c4)ccc3=O)c2)nc1` [Example 485, N-methyl-2-(3-{[1-(1-methyl-1H-pyrazol-4-yl)-4-oxo-1,4-dihydro-pyridazin-3-yl]methyl}phenyl)pyrimidine-5-carboxamide], for which the pIC50 is > 7.00.

For `CCNC(=O)Nc1cccc(Cc2nn(-c3ccccc3)ccc2=O)c1` [Example 486, 1-Ethyl-3-{3-[(4-oxo-1-phenyl-1,4-dihydropyridazin-3-yl)methyl]phenyl}urea], the pIC50 was 5.52 to 6.00.

Regarding `CNC(=O)Nc1cccc(Cc2nn(-c3cnn(C)c3)ccc2=O)c1` [Example 487, 1-Methyl-3-(3-{[1-(1-methyl-1H-pyrazol-4-yl)-4-oxo-1,4-dihydropyridazin-3-yl]methyl}phenyl)urea], the pIC50 is > 7.00.

For the compound `CCNC(=O)Nc1cccc(Cc2nn(-c3cnn(C)c3)ccc2=O)c1` [Example 488, 1-ethyl-3-(3-{[1-(1-methyl-1H-pyrazol-4-yl)-4-oxo-1,4-dihydropyridazin-3-yl]methyl}phenyl)urea], the pIC50 is > 7.00.
